Source: patent US20200383985A1, “Inhibitors of Protease Activated Receptor-2” (Endosome Therapeutics, Inc., priority 2017, published 2020)

Experiments:
PKC and cAMP = assay: FRET assays of PKC and cAMP in HEK293 cells; assay type: cell-based
Procedure: I-343, but not SCH530348, inhibited trypsin stimulation of PKC and cAMP, which thus depend on PAR2 (FIGS. 19G and H). […] The sustained plasma membrane cAMP response to trypsin support the existence of mechanisms that allow persistent PAR2 signaling, which warrant further investigation.
HEK293 cells were cultured in DMEM supplemented with 10% (v/v) FBS (5% CO2, 37° C.). When necessary serum restriction was achieved by replacing culture medium with DMEM containing 0.5% FBS overnight. Cells were transiently transfected using polyethylenimine (PEI) (1:6 DNA:PEI).
HEK293 cells were transiently transfected in 10 cm dishes (˜50% confluency) with Flag-PAR2-HA (2.5 μg) and FRET biosensors CytoEKAR or NucEKAR (2.5 μg) (Jensen, D. D. et al., Sci Transl Med. 2017, 9(392), eaal3447; Thomsen, A. R. B., et al., Cell 2016, 166(4): 907-919). In experiments examining the role of dynamin, cells were transfected with FLAG-PAR2-HA (1.25 μg), FRET biosensor (1.25 μg) and either DynWT-HA, DynK44E-HA or pcDNA3.1 (2.5 μg). At 24 h after transfection, cells were seeded on ViewPlate-96 well plates (PerkinElmer). FRET was assessed 72 h post-transfection, following overnight serum restriction. Cells were equilibrated in HBSS-HEPES (30 min, 37° C.). FRET was measured using a PHERAstar FSX Microplate Reader (BMG LabTech). For CFP/YFP emission ratio analysis, cells were sequentially excited using a CFP filter (425/10 nm) with emission measured using YFP (550/50 nm) and CFP (490/20 nm) filters. FRET was measured before and after stimulation with trypsin (10 nM), NE (100 nM), CS (100 nM), phorbol 12,13-dibutyrate, PDBu (positive control, 1 μM), or vehicle. FRET ratios (donor/acceptor intensity for EKAR, or acceptor/donor intensity for CKAR and Epac) were calculated and corrected to baseline and vehicle treatments to determine ligand-induced FRET (ΔFRET). Treatment effects were determined by comparison of area under the curve values. Signalling inhibitors were dissolved in HBSS-HEPES. PS2 and PS2 inact were dissolved in HBSS-HEPES+1% DMSO. […]

mice = assay: Paw inflammation after intraplantar injection (paw thickness, neutrophil infiltration); assay type: in vivo, mouse; details: WT mice; for paw thickness after intraplantar protease: calipers
From the text: Proteases may induce pain by activating PAR2 on nociceptors or other cell types. To determine the contribution of PAR2 on nociceptors, mice were bred expressing PAR2 flanked by LoxP sites (Par2^lox/lox) with mice expressing Cre recombinase targeted to nociceptors using the NaV1.8 promoter (Scn10a) (Stirling L. C. et al., Pain 2005, 113(1-2): 27-36). Par2-NaV1.8 mice lacked immunoreactive PAR2 in NaV1.8-positive nociceptors (FIG. 1A). Whereas 31% (20 of 65) of small-diameter (<25 μm) DRG neurons from WT mice responded to trypsin (100 nM) with increased [Ca^2+]i, only 6% (3 of 51) of neurons from Par2-NaV1.8 mice responded (FIGS. 1B, 11A, and 11B). Nociception was assessed by measuring withdrawal responses to stimulation of the plantar surface of the hindpaw with von Frey filaments. […] In Par2-NaV1.8 mice, the initial responses were maintained, but responses after 120 min were diminished. […] Trypsin-induced inflammation was markedly diminished in Par2-NaV1.8 mice.
Mice were acclimatized to the experimental apparatus, room and investigator for 1-2 h on 2 successive days before studies. Investigators were blinded to the test agents. Mice were sedated (5% isoflurane) for intraplantar injections. Dy4a, Dy4 inact, PS2, PS2 inact (all 50 μM) or vehicle (0.2% DMSO in 0.9% NaCl) (10 μl) was injected into the left hindpaw. After 30 min, trypsin (10 or 80 nM), CS (2.5 or 5 μM) or NE (1.2 or 3.9 μM) (all 10 μl) was injected into the same hindpaw. Mechanical nociceptive responses were evaluated by examining paw withdrawal to stimulation of the plantar surface of the hind-paw with calibrated von Frey filaments. von Frey scores were measured in triplicate to establish a baseline for each animal on the day before experiments, and were then measured for up to 4 h after protease administration. To assess edema, paw thickness was measured at the site of injection between the plantar and the dorsal surfaces of the paw using digital calipers. […] Ly6G/Ly6c was detected with goat anti-rat horseradish peroxidase conjugated multimer incubated for 16 min.

Row | Compound | trypsin stimulation of PKC and cAMP (PKC and cAMP; HEK293 cells) | paw thickness after intraplantar protease (mice) | neutrophil influx into the paw (mice; after 4 h) | PKC activation and cAMP generation at the plasma membrane and in the cytosol (PKC and cAMP; trypsin 10 nM)
1 | Cc1nc(C(=O)N2CCN(C(=O)c3cn4nc(-c5ccc(F)cc5)cc(C(C)(C)C)c4n3)C(C)(C)C2)n[nH]1 [Compound I-343, (8-(tert-butyl)-6-(4-fluorophenyl)imidazo[1,2-b]pyridazin-2-yl)(2,2-dimethyl-4-(5-methyl-1H-1,2,4-triazole-3-carbonyl)piperazin-1-yl)methanone] | inhibited | – | – | –
2 | NE: protease (elastase) activating PAR2 by biased mechanisms | – | increased paw thickness | – | –
3 | trypsin | – | increased paw thickness | stimulated an influx of neutrophils | rapid and sustained activation
